{"source": "patent US8426453B2", "about": "(Astellas Pharma Inc., priority 2006, dated 2013)", "key": {"[1]": {"tested_on": "SD rats", "experiment": "Gastric ulcer model (diclofenac-induced ulcer in gastric corpus)", "format": "in vivo", "settings": "1 hour before diclofenac 40 mg/kg oral, measured 6 hours after diclofenac", "description": "A test compound was suspended in a 0.5% methyl cellulose (MC) solution to prepare a chemical liquid having a concentration 5 ml/kg; and this was orally administered to SD rats (n=12 in each group). The test compound was controlled to be 10 mg/kg or 30 mg/kg. A control group was separately prepared, in which 5 ml/kg of the 0.5% MC solution was orally administered to the rats. After 1 hour, 40 mg/kg of NSAID, diclofenac (by Sigma) was orally administered to all rats of all groups, as a suspension in 0.5% MC solution (5 ml/kg). In 6 hours after the diclofenac administration, the length of the ulcer formed in the gastric corpus was measured using a stereomicroscope (by Nikon) and a micrometer (by Olympus), and the data of 12 cases were averaged. The antiulceration potency (%) of the test compound was computed according to the following formula: Antiulceration Potency (%): [1−(mean ulcer length of compound-administered group/mean ulcer length of 0.5% MC-administered group)]×100."}, "[2]": {"target": "T1, xanthine oxidase (derived from butter milk, by Sigma) (Bos taurus, UniProt P80457)", "T1 construct": "xanthine oxidase (derived from butter milk, by Sigma); purchased Sigma; host or cells: butter milk (natural source)", "T1 sequence (P80457 whole entry)": "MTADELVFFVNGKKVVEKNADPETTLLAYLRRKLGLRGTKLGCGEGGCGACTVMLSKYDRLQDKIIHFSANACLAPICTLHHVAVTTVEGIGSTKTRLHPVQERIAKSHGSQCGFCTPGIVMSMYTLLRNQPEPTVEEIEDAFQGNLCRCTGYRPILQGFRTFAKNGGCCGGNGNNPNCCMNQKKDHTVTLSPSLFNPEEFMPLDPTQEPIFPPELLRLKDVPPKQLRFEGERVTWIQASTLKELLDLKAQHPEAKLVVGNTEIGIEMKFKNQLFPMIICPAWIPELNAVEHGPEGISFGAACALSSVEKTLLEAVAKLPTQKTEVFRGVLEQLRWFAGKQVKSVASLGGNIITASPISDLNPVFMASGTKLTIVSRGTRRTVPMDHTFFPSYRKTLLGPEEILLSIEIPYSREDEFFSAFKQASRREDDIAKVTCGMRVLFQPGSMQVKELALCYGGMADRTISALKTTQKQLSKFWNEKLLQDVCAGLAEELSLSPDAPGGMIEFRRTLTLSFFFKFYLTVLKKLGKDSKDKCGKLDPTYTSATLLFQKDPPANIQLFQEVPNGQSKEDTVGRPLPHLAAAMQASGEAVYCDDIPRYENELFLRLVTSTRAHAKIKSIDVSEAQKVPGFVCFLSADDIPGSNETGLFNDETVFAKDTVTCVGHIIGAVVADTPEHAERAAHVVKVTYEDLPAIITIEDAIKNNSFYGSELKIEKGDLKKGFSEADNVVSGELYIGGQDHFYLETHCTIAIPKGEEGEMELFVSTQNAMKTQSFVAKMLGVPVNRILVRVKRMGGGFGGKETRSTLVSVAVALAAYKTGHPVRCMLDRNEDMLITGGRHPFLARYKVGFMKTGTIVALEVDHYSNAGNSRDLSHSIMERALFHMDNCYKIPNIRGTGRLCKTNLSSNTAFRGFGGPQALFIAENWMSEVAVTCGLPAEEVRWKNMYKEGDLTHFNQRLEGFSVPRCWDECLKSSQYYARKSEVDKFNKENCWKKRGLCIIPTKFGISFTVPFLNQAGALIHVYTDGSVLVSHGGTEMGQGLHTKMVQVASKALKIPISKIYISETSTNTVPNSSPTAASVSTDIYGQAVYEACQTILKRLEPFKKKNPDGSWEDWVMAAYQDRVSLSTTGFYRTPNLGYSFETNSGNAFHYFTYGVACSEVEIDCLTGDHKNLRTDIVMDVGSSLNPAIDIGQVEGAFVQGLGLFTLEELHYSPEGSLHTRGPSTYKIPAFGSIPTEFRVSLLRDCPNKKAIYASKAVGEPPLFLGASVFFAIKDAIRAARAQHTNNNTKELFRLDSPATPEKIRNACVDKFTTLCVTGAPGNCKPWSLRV", "experiment": "Xanthine oxidase inhibiting activity (pterin fluorescence assay)", "format": "biochemical", "settings": "xanthine oxidase 0.03 units/ml, pterin 5 μM, room temperature", "description": "A test compound was dissolved in DMSO (by Nacalai) to have a concentration of 10 mM, and then just before use, its concentration was adjusted to a desired one.\nThe xanthine oxidase inhibitory activity of the compound of the present invention was evaluated according to a partly modified method of a method described in a reference “Free Radic. Biol. Med. 6, 607-615, 1992”. Concretely, xanthine oxidase (derived from butter milk, by Sigma) was mixed with 50 mM phosphate buffer to be 0.03 units/ml, and applied to a 96-well plate in an amount of 50 μl/well. The test compound diluted to have a final concentration was added to the plate in an amount of 2 μl/well, and processed at room temperature for 20 minutes. Pterin (by Sigma) was added to it to have a final concentration of 5 μM in an amount of 50 μl/well, and reacted at room temperature for 10 minutes. Under a condition of excitation at 345 nm and emission at 390 nm (pterin is oxidized by xanthine oxidase to give isoxanthopterin, and under the condition it emits light), the sample was analyzed using a microplate reader sapphire (by Tacan).\nThe light emission by isoxanthopterin in the presence or absence of xanthine oxidase was defined as 0% inhibition and 100% inhibition, respectively, and the concentration (IC50) of the test compound for 50% inhibition was computed."}, "[3]": {"tested_on": "SD rats", "experiment": "Small intestine ulcer model (indomethacin-induced ulcer)", "format": "in vivo", "settings": "10 mg/kg oral, 1 hour before and 9 hours after indomethacin 10 mg/kg oral, measured after 24 hours", "description": "A test compound was suspended in a 0.5% methyl cellulose (MC) solution to prepare a chemical liquid having a concentration 5 ml/kg; and this was orally administered to SD rats (n=10 in each group). The test compound was controlled to be 10 mg/kg in every case. A control group was separately prepared, in which 5 ml/kg of the 0.5% MC solution was orally administered to the rats. After 1 hour, 10 mg/kg of NSAID, indomethacin (by Sigma) was orally administered to the rats, as a suspension in 0.5% MC solution (5 ml/kg). In 9 hours after the indomethacin administration, the test compound was again orally administered to every rat in the same amount as previously; and after 24 hours, the area of the ulcer formed in the small intestine was measured using a stereomicroscope (by Nikon) and a micrometer (by Olympus), and the data of 10 cases were averaged. The antiulceration potency (%) of the test compound was computed according to the following formula: Antiulceration Potency (%): [1−(mean ulcer area of compound-administered group/mean ulcer area of 0.5% MC-administered group)]×100."}}}
{"smiles": "Cc1nc(-c2ccc(OCC(C)C)c(C#N)c2)sc1C(=O)O", "note": "[Compound A, 2-(3-cyano-4-isobutyloxyphenyl)-4-methyl-1,3-thiazole-5-carboxylic acid]", "values": [{"measurement": "Antiulceration potency (inhibitory potency), mean ulcer length in gastric corpus vs 0.5% MC group", "setting": "[1]; 30 mg/kg oral", "value": 36, "unit": "%"}]}
{"smiles": "CC(C)(C)COc1ccc(-n2cc(C(=O)O)cn2)cc1C#N", "note": "[Compound B, 1-(3-cyano-4-neopentyloxyphenyl)-1H-pyrazole-4-carboxylic acid]", "values": [{"measurement": "Antiulceration potency (inhibitory potency), mean ulcer length in gastric corpus vs 0.5% MC group", "setting": "[1]; 30 mg/kg oral", "value": 43, "unit": "%"}]}
{"smiles": "CC(C)COc1ccc(-c2cc(C(=O)O)ccn2)cc1C(F)(F)F", "note": "[Example 30]", "values": [{"measurement": "IC50", "setting": "[2]", "value": 6.3, "unit": "nM"}]}
{"smiles": "CC(C)CSc1ccc(-c2cc(C(=O)O)ccn2)cc1C#N", "note": "[Example 53]", "values": [{"measurement": "IC50", "setting": "[2]", "value": 2.5, "unit": "nM"}]}
{"smiles": "N#Cc1cc(-c2ccc(C(=O)O)s2)cc(F)c1OC1CCCC1", "note": "[Example 119]", "values": [{"measurement": "IC50", "setting": "[2]", "value": 1.5, "unit": "nM"}]}
{"smiles": "Oc1ncnc2[nH]ncc12", "note": "[allopurinol, reference compound]", "values": [{"measurement": "Antiulceration potency (inhibitory potency), mean ulcer length in gastric corpus vs 0.5% MC group", "setting": "[1]; 30 mg/kg oral", "value": "no inhibitory potency was confirmed"}, {"measurement": "Antiulceration potency (inhibitory potency), mean ulcer area in small intestine vs 0.5% MC group", "setting": "[3]", "value": "no inhibitory potency was confirmed"}]}
{"smiles": "N#Cc1cc(-c2cc(C(=O)[O-])ccn2)ccc1-c1ccccc1.[Na+]", "note": "[compound 8]", "values": [{"measurement": "Antiulceration potency (inhibitory potency), mean ulcer length in gastric corpus vs 0.5% MC group", "setting": "[1]; 30 mg/kg oral", "value": 72, "unit": "%"}, {"measurement": "Antiulceration potency (inhibitory potency), mean ulcer area in small intestine vs 0.5% MC group", "setting": "[3]", "value": 29, "unit": "%"}]}
{"smiles": "N#Cc1cc(-c2cc(C(=O)O)ccn2)ccc1-c1ccc(F)cc1", "note": "[compound 133]", "values": [{"measurement": "IC50", "setting": "[2]", "value": "≤ 20", "unit": "nM"}]}
{"smiles": "COc1ccccc1-c1ccc(-c2cc(C(=O)O)ccn2)cc1C#N", "note": "[compound 138]", "values": [{"measurement": "IC50", "setting": "[2]", "value": "≤ 20", "unit": "nM"}]}
{"smiles": "N#Cc1cc(-c2cc(C(=O)O)ccn2)ccc1-c1ccsc1", "note": "[compound 141]", "values": [{"measurement": "IC50", "setting": "[2]", "value": "≤ 20", "unit": "nM"}]}
{"smiles": "N#Cc1ccc(-c2ccc(-c3cc(C(=O)O)ccn3)cc2C#N)cc1", "note": "[compound 143]", "values": [{"measurement": "IC50", "setting": "[2]", "value": "≤ 20", "unit": "nM"}]}
{"smiles": "N#Cc1cc(-c2cc(C(=O)O)ccn2)ccc1-c1ccco1", "note": "[compound 145]", "values": [{"measurement": "IC50", "setting": "[2]", "value": "≤ 20", "unit": "nM"}]}
{"smiles": "CC(C)(C)c1ccc(-c2ccc(-c3cc(C(=O)O)ccn3)cc2C#N)cc1", "note": "[compound 153]", "values": [{"measurement": "IC50", "setting": "[2]", "value": "≤ 20", "unit": "nM"}]}
{"smiles": "N#Cc1cc(-c2cc(C(=O)O)ccn2)ccc1-c1ccc(Oc2ccccc2)cc1", "note": "[compound 166]", "values": [{"measurement": "IC50", "setting": "[2]", "value": "≤ 20", "unit": "nM"}]}
{"smiles": "N#Cc1cc(-c2cc(C(=O)O)ccn2)ccc1-c1ccc2c(c1)OCO2", "note": "[compound 169]", "values": [{"measurement": "IC50", "setting": "[2]", "value": "≤ 20", "unit": "nM"}]}
{"smiles": "N#Cc1cc(-c2cc(C(=O)O)ccn2)ccc1-n1ncc2ccccc21", "note": "[compound 179]", "values": [{"measurement": "IC50", "setting": "[2]", "value": "≤ 20", "unit": "nM"}]}
{"smiles": "Cc1nc(-c2ccc(-c3ccccc3)c(C#N)c2)sc1C(=O)O", "note": "[compound 237]", "values": [{"measurement": "Antiulceration potency (inhibitory potency), mean ulcer length in gastric corpus vs 0.5% MC group", "setting": "[1]; 10 mg/kg oral", "value": 32, "unit": "%"}, {"measurement": "Antiulceration potency (inhibitory potency), mean ulcer area in small intestine vs 0.5% MC group", "setting": "[3]", "value": 59, "unit": "%"}, {"measurement": "IC50", "setting": "[2]", "value": "≤ 20", "unit": "nM"}]}
{"smiles": "Cc1nc(-c2ccc(-c3ccc(OC(F)(F)F)cc3)c(C#N)c2)sc1C(=O)O", "note": "[compound 240]", "values": [{"measurement": "IC50", "setting": "[2]", "value": "≤ 20", "unit": "nM"}]}
{"smiles": "Cc1cccc(-c2ccc(-c3nc(C)c(C(=O)O)s3)cc2C#N)c1", "note": "[compound 243]", "values": [{"measurement": "IC50", "setting": "[2]", "value": "≤ 20", "unit": "nM"}]}
{"smiles": "N#Cc1cc(-c2ncc(C(=O)O)s2)ccc1-c1ccccc1", "note": "[compound 250]", "values": [{"measurement": "Antiulceration potency (inhibitory potency), mean ulcer area in small intestine vs 0.5% MC group", "setting": "[3]", "value": 73, "unit": "%"}, {"measurement": "IC50", "setting": "[2]", "value": "≤ 20", "unit": "nM"}]}
{"smiles": "N#Cc1cc(-n2cc(C(=O)O)cn2)ccc1-c1ccccc1", "note": "[compound 251]", "values": [{"measurement": "Antiulceration potency (inhibitory potency), mean ulcer length in gastric corpus vs 0.5% MC group", "setting": "[1]; 30 mg/kg oral", "value": 43, "unit": "%"}, {"measurement": "Antiulceration potency (inhibitory potency), mean ulcer area in small intestine vs 0.5% MC group", "setting": "[3]", "value": 41, "unit": "%"}, {"measurement": "IC50", "setting": "[2]", "value": "≤ 20", "unit": "nM"}]}
{"smiles": "Cc1ccc(-c2ccc(-n3cc(C(=O)O)cn3)cc2C#N)cc1", "note": "[compound 252]", "values": [{"measurement": "IC50", "setting": "[2]", "value": "≤ 20", "unit": "nM"}]}
